Results from US20020032178A1 (priority 2000, published 2002).

COC(=O)c1cccc(/C=N/NC(=O)c2ccc(C)cc2)c1O [I-2]
melting point: 134 to 137 °C
